Test results reported in patent US9487530B2, “Transient protection of normal cells during chemotherapy” (G1 Therapeutics, Inc., priority 2013, dated 2016).

Key:
[1] = test system: tHS68 cells (CDK4/6-dependent cell line); assay: Cell cycle arrest (propidium iodide), tHS68; assay type: cell-based; conditions: 300 nM for 24 hours
Description: (§1) To test the ability of Cdk4/6 inhibitors to induce a clean G1-arrest, a cell based screening method was used consisting of two Cdk4/6-dependent cell lines (tHS68 and WM2664; Rb-positive) and one Cdk4/6-independent (A2058; Rb-negative) cell line. […] At the conclusion of the experiment, cells were harvested, fixed, and stained with propidium iodide (a DNA intercalator), which fluoresces strongly red (emission maximum 637 nm) when excited by 488 nm light. Samples were run on Dako Cyan flow cytometer and >10,000 events were collected for each sample. Data were analyzed using FlowJo 2.2 software developed by TreeStar, Inc.

[2] = Mouse pharmacokinetics, oral gavage and intravenous; assay type: in vivo
blood cell counts = assay: 5FU-induced myelosuppression, repeated cycles; assay type: in vivo, mouse; conditions: 150 mg/kg oral + 5FU 150 mg/kg every 21 days, 3 cycles; Day 10 of third cycle
Description: This was repeated every 21 days for 3 cycles. Blood samples were taken for hematology analysis on Day 10 of Cycles 1-3.

[3] = test system: A2058 cells (CDK4/6-independent cell line); assay: Cell cycle arrest (propidium iodide), A2058; assay type: cell-based; conditions: 300 nM for 24 hours
Description: as §1

[4] = test system: whole bone marrow, HSPC and differentiated hematopoietic cells; assay: EdU incorporation in mouse hematopoietic cell lineages; assay type: in vivo; conditions: 150 mg/kg oral gavage; for inhibition at 150 mg/kg: Mus musculus
Method: Ten-hours later, all mice were given a single i.p. injection of 100 mcg EdU (5-ethynyl-2′-deoxyuridine) to label cells in S-phase of the cell cycle. All treated mice were euthanized 2 hours after EdU injection, bone marrow cells were harvested and processed for flow cytometric analysis of EdU-incorporation (FIG. 13).

HSPCs = assay: Bone marrow HSPC proliferation by EdU incorporation and flow cytometry; assay type: in vivo, mouse
Method: Mice were then sacrificed at the indicated times (0, 12, 24, 36, or 48 hours following compound administration), and bone marrow was harvested (n=3 mice per time point), as previously described (Johnson et al. J. Clin. Invest. (2010) 120(7), 2528-2536). Four hours before the bone marrow was harvested, mice were treated with 100 μg of EdU by intraperitoneal injection (Invitrogen). Bone marrow mononuclear cells were harvested and immunophenotyped using previously described methods and percent EdU positive cells were then determined (Johnson et al. J. Clin. Invest. (2010) 120(7), 2528-2536). In brief, HSPCs were identified by expression of lineage markers (Lin−), ScaI (S+), and c-Kit (K+).
Four hours before animals were sacrificed and the bone marrow was harvested, mice were treated with 100 μg of EdU by intraperitoneal injection. Three mice per group were sacrificed at 12 hours and the remaining three animals per group were sacrificed at 24 hours. Results are shown in FIG. 6A as the ratio of EdU positive cells for treated animals at 12 or 24 hour time points compared to control.
Further experiments were completed with Compound T examining dose response and longer periods of compound treatment. […] […].
Both compounds were administered at 150 mg/kg by oral gavage. One hour prior to harvesting bone marrow, EdU was IP injected to label cycling cells. Bone marrow was harvested at 12, 24, 36, and 48 hours after compound treatment and the percentage of EdU positive HSPC cells was determined at each time point.

[5] = test system: WM2664 cells (CDK4/6-dependent cell line); assay: Cell cycle arrest (propidium iodide), WM2664; assay type: cell-based; conditions: 300 nM for 24 hours
Description: as §1

## CN1CCN(c2ccc(Nc3ncc4cc5n(c4n3)C3(CCCCC3)CNC5=O)nc2)CC1 [T, 2′-((5-(4-methylpiperazin-1-yl)pyridin-2-yl)amino)-7′,8′-dihydro-6′H-spiro[cyclohexane-1,9′-pyrazino[1′,2′:1,5]pyrrolo[2,3-d]pyrimidin]-6′-one]
[1]
  S-phase peak: causes a loss of the S-phase peak
[2]
  F (oral bioavailability): 80%
Blood cell counts
  myelosuppression with repeated 5FU: reduced the myelosuppression
[3]
  S-phase peak: does not cause a loss of the S-phase peak
[4]; B cell progenitors
  reduction in EdU+ cell frequencies: > 80%
[4]; CMP, GMP, MEP and CLP
  reduction in EdU+ cell frequency: 76-92%
[4]; Mac1+G1+ myeloid cells
  reduction in EdU+ cell frequency: 46%
[4]; T cell progenitors
  reduction in EdU+ cell frequencies: > 99%
[4]; Ter119+ erythroid cells
  reduction in EdU+ cell frequency: 58%
[4]; unfractionated whole bone marrow cells
  reduction of EdU+ cell frequency: ~70%
[4]; Hematopoietic stem cell, hematopoietic stem cells (HSC)
  inhibition at 150 mg/kg: 74%
[4]; multipotent progenitors (MPP)
  inhibition at 150 mg/kg: 90%
HSPCs; 150 mg/kg oral gavage, 12 and 24 hours, FIG. 6A
  EdU incorporation into HSPCs compared to control: reduction in EdU incorporation at 12 hours which was starting to return to normal at 24 hours
HSPCs; single 150 mg/kg oral dose, FIG. 7
  time by which proliferation of HSPCs resumes: ≤ 24 h
[5]
  S-phase peak: causes a loss of the S-phase peak
